Data on three compounds can be found in ChEMBL document CHEMBL4052759, “Discovery of DS79182026: A potent orally active hepcidin production inhibitor” (Bioorg Med Chem Lett, 2017).

Assay [1] relates to Proto-oncogene tyrosine-protein kinase receptor Ret (Homo sapiens), P07949 [M918T]. In words: Inhibition of RET M918T mutant (unknown origin) at 0.49 uM relative to control.
For assay [2], the target named is Cyclin-dependent kinase 1/cyclin B1 (Homo sapiens) (UniProt P06493+P14635). The experiment in a line: Inhibition of CDK1/CyclinB (unknown origin) at 0.49 uM relative to control. It counts as protein-complex assay.
Sequence of Cyclin-dependent kinase 1/cyclin B1 (Homo sapiens) (P06493 whole entry, looked up): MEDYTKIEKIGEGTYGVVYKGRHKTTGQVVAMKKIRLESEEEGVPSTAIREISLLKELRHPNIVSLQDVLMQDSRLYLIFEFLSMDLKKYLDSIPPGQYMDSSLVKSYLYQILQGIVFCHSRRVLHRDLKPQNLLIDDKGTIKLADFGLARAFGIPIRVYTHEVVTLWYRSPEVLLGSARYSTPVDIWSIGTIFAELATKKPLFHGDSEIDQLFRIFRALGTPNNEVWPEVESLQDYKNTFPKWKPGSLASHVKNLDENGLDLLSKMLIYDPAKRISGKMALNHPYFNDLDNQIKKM
Sequence of Cyclin-dependent kinase 1/cyclin B1 (Homo sapiens) (P14635 whole entry, looked up): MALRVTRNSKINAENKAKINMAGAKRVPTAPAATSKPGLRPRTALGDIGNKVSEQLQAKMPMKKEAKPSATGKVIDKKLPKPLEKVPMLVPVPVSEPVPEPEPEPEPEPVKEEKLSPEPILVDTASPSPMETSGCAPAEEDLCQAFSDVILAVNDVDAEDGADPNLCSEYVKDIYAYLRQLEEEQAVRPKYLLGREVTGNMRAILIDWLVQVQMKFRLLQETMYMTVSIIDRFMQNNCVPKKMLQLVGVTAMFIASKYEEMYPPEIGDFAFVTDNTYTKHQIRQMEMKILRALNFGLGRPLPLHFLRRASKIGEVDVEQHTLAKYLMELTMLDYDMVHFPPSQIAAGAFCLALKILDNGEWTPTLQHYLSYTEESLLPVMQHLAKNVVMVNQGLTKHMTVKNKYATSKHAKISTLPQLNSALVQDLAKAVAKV
In assay [3] the target is Tyrosine-protein kinase receptor TYRO3 (Homo sapiens) (UniProt Q06418). In words: Inhibition of TYRO3 (unknown origin) at 0.49 uM relative to control.
Assay [4] concerns the target Ribosomal protein S6 kinase alpha-2 (Homo sapiens) (UniProt Q15349). The experiment in a line: Inhibition of RSK3 (unknown origin) at 0.49 uM relative to control.
The target of assay [5] is Casein kinase I isoform epsilon (Homo sapiens) (UniProt P49674). In words: Inhibition of CK1-epsilon (unknown origin) at 0.49 uM relative to control.
The target of assay [6] is Serine/threonine-protein kinase BRSK1 (Homo sapiens) (UniProt Q8TDC3). In words: Inhibition of BRSK1 (unknown origin) at 0.49 uM relative to control.
In assay [7] the target is Dual specificity protein kinase CLK3 (Homo sapiens) (UniProt P49761). The experiment in a line: Inhibition of CLK3 (unknown origin) at 0.49 uM relative to control.
Sequence of Dual specificity protein kinase CLK3 (Homo sapiens) (P49761 whole entry, looked up, canonical isoform): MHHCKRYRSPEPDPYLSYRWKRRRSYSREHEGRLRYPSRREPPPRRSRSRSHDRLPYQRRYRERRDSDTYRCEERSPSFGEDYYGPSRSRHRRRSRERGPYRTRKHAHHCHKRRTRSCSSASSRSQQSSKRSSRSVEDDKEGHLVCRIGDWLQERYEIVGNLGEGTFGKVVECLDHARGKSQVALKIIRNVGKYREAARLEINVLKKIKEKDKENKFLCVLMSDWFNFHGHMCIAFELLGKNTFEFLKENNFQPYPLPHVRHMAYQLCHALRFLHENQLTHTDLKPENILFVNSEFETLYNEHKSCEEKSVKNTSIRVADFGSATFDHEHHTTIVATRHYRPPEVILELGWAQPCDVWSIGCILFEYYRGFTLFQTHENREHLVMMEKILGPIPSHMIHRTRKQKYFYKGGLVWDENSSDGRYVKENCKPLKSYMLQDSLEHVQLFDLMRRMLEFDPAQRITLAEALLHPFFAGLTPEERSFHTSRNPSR
In assay [8] the target is Phosphorylase b kinase gamma catalytic chain, liver/testis isoform (Homo sapiens) (UniProt P15735). The experiment in a line: Inhibition of PhKg2 (unknown origin) at 0.49 uM relative to control.
Assay [9] has as its target Casein kinase I isoform gamma-2 (Homo sapiens) (UniProt P78368). In words: Inhibition of Casein kinase 1g2 (unknown origin) at 0.49 uM relative to control.
The target in assay [10] is Homeodomain-interacting protein kinase 1 (Homo sapiens) (UniProt Q86Z02). The experiment in a line: Inhibition of HIPK1 (unknown origin) at 0.49 uM relative to control.
For assay [11], the target named is Ribosomal protein S6 kinase alpha-6 (Homo sapiens) (UniProt Q9UK32). In words: Inhibition of RSK4 (unknown origin) at 0.49 uM relative to control.
The subject of assay [12] is Tyrosine-protein kinase ABL1 (Homo sapiens), P00519 [Y253F]. The experiment in a line: Inhibition of ABL1 Y253F mutant (unknown origin) at 0.49 uM relative to control.
Assay [13] concerns the target Tyrosine-protein kinase Srms (Homo sapiens) (UniProt Q9H3Y6). The experiment in a line: Inhibition of SRM (SRMS) (unknown origin) at 0.49 uM relative to control.
The target in assay [14] is RAC-beta serine/threonine-protein kinase (Homo sapiens) (UniProt P31751). In words: Inhibition of AKT2 (unknown origin) at 0.49 uM relative to control.
Sequence of RAC-beta serine/threonine-protein kinase (Homo sapiens) (P31751 whole entry): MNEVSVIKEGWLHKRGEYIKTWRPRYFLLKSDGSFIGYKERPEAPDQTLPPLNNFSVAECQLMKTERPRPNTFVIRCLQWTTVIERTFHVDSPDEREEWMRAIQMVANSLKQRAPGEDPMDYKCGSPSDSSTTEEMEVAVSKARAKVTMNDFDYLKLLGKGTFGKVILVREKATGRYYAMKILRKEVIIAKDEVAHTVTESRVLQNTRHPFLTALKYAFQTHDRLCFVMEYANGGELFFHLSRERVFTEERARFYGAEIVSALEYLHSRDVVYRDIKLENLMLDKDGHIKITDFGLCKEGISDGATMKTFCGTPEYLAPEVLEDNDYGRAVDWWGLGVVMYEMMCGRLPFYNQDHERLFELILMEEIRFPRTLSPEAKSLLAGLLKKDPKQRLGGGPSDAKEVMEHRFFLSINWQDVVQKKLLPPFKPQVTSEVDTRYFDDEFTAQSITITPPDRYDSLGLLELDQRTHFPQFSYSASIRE
The target in assay [15] is Aurora kinase C (Homo sapiens) (UniProt Q9UQB9). In words: Inhibition of AurC (unknown origin) at 0.49 uM relative to control.
The target in assay [16] is Mitogen-activated protein kinase 1 (Homo sapiens) (UniProt P28482). In words: Inhibition of Erk2 (unknown origin) at 0.45 uM relative to control.
Sequence of Mitogen-activated protein kinase 1 (Homo sapiens) (P28482 whole entry): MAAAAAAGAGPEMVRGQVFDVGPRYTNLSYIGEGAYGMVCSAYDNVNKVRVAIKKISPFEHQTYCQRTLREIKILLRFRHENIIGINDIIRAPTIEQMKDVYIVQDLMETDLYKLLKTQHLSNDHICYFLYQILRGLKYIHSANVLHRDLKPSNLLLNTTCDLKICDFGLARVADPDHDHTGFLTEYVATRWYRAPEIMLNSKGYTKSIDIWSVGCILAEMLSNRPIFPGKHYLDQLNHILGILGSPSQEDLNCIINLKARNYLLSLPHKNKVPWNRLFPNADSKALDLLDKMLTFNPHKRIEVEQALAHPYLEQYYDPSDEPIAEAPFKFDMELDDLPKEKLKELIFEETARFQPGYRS
Assay [17] has as its target RAC-beta serine/threonine-protein kinase (Homo sapiens) (UniProt P31751). In words: Inhibition of AKT2 (unknown origin) at 0.45 uM relative to control.
Assay [18] deals with Mast/stem cell growth factor receptor Kit (Homo sapiens) (UniProt P10721). The experiment in a line: Inhibition of KIT (unknown origin) at 0.45 uM relative to control.
The target in assay [19] is Serine/threonine-protein kinase PAK 5 (Homo sapiens) (UniProt Q9P286). The experiment in a line: Inhibition of PAK5 (unknown origin) at 0.45 uM relative to control.
Sequence of Serine/threonine-protein kinase PAK 5 (Homo sapiens) (Q9P286 whole entry, looked up): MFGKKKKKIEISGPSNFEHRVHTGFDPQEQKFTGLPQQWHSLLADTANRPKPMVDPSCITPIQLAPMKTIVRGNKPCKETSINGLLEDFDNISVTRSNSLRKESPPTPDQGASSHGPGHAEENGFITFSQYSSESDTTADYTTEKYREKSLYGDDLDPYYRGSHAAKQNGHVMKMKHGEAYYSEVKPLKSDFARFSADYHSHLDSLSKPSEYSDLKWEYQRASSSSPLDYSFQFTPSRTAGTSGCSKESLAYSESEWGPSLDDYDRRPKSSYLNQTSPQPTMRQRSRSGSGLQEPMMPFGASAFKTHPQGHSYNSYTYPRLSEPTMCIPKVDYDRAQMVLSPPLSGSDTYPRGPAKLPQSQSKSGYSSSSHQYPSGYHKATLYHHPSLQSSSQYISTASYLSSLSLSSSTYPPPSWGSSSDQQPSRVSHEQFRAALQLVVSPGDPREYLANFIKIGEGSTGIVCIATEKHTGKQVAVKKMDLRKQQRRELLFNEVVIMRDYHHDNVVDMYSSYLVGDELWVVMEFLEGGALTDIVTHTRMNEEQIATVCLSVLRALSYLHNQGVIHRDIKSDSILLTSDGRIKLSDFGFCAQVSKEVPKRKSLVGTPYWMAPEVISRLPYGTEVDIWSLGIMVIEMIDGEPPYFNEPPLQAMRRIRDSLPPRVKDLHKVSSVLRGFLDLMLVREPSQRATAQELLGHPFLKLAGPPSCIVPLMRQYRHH
For assay [20], the target named is Rho-associated protein kinase 1 (Homo sapiens) (UniProt Q13464). The experiment in a line: Inhibition of ROCK1 (unknown origin) at 0.45 uM relative to control.
The species named for assay [21] is Homo sapiens. The experiment in a line: Inhibition of PKA (unknown origin) at 0.45 uM relative to control.
In assay [22] the target is Tyrosine-protein kinase Srms (Homo sapiens) (UniProt Q9H3Y6). The experiment in a line: Inhibition of SRM (SRMS) (unknown origin) at 0.45 uM relative to control.
Sequence of Tyrosine-protein kinase Srms (Homo sapiens) (Q9H3Y6 whole entry): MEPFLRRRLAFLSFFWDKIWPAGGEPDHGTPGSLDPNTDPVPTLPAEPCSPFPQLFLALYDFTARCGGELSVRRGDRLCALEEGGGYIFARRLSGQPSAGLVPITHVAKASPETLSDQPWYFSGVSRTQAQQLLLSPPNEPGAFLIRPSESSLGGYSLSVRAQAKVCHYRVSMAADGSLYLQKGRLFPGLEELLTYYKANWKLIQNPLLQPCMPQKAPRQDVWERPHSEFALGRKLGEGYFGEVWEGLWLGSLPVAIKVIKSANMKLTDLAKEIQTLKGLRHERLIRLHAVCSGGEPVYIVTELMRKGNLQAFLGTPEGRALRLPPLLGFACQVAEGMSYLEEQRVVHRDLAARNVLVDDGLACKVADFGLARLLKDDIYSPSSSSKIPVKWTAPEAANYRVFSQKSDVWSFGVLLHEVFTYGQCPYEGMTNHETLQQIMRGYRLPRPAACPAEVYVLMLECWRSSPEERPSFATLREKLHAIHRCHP
The target of assay [23] is Mitogen-activated protein kinase 12 (Homo sapiens) (UniProt P53778). The experiment in a line: Inhibition of p38-gamma (unknown origin) at 0.45 uM relative to control.
In assay [24] the target is Phosphorylase b kinase gamma catalytic chain, skeletal muscle/heart isoform (Homo sapiens) (UniProt Q16816). The experiment in a line: Inhibition of PhKg1 (unknown origin) at 0.45 uM relative to control.
Sequence of Phosphorylase b kinase gamma catalytic chain, skeletal muscle/heart isoform (Homo sapiens) (Q16816 whole entry, looked up, canonical isoform): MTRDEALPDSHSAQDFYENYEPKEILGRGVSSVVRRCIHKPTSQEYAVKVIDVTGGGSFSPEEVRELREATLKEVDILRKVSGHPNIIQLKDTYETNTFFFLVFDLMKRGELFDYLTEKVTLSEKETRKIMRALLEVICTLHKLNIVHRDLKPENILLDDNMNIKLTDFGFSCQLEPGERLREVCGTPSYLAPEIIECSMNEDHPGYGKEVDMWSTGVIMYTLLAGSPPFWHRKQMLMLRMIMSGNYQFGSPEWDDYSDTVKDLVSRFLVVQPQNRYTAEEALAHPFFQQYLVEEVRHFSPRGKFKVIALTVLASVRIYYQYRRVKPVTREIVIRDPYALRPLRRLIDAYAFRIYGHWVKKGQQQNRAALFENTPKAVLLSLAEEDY
Assay [25] addresses Tyrosine-protein kinase Fes/Fps (Homo sapiens) (UniProt P07332). In words: Inhibition of FES (unknown origin) at 0.45 uM relative to control.
The target of assay [26] is Tyrosine-protein kinase ABL1 (Homo sapiens) (UniProt P00519). The experiment in a line: Inhibition of ABL (unknown origin) at 0.078 uM relative to control.
The target in assay [27] is T1, Serine/threonine-protein kinase Chk1 (Homo sapiens) (UniProt O14757).
T1 sequence (whole entry): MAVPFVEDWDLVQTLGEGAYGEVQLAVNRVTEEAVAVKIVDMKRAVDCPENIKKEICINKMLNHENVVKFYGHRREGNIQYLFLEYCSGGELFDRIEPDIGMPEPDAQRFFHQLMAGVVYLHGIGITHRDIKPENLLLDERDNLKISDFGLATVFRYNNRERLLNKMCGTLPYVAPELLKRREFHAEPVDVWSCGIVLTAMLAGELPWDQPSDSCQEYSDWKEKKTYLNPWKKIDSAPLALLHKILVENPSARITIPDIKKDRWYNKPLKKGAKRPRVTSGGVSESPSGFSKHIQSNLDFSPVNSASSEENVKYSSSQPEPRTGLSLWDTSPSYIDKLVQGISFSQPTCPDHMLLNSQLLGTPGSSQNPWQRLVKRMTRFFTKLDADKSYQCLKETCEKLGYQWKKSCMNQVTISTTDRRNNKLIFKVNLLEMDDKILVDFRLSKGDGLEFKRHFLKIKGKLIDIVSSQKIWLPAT
In words: Inhibition of CHK1 (unknown origin) at 0.078 uM relative to control.

Structures are written as SMILES.

Sequence of Casein kinase I isoform gamma-2 (Homo sapiens) (P78368 whole entry, looked up, canonical isoform): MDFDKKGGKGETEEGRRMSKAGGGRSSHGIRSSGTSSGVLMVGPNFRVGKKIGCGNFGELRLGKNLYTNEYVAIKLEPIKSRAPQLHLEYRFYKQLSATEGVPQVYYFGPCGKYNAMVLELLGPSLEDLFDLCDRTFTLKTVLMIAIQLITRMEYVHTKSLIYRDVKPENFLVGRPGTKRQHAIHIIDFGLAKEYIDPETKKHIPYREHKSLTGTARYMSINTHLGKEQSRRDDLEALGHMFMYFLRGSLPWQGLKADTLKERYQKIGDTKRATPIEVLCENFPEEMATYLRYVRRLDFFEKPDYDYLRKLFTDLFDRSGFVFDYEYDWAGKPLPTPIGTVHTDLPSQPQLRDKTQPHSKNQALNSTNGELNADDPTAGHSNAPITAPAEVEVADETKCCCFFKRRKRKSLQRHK
Sequence of Ribosomal protein S6 kinase alpha-2 (Homo sapiens) (Q15349 whole entry, canonical isoform): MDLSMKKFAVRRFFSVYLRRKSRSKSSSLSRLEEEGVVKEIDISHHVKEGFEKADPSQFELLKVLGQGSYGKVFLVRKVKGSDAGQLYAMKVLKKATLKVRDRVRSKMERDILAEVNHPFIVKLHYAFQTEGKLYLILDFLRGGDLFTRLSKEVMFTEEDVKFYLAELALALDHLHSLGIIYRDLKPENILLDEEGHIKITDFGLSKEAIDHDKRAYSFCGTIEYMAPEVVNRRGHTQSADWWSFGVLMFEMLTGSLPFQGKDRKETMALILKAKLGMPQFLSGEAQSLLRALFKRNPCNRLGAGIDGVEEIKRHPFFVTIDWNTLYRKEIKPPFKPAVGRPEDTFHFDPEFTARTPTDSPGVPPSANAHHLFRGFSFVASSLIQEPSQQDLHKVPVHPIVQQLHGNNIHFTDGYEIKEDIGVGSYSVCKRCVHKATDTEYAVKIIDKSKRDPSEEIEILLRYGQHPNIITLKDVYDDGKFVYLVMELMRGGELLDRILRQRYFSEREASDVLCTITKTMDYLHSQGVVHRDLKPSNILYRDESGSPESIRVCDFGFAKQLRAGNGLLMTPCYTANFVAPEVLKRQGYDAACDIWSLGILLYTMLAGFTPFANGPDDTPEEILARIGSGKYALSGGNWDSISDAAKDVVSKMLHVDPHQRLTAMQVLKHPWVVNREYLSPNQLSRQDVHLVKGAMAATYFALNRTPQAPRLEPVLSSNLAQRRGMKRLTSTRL

As to `Cc1[nH]nc(C2CC2)c1-c1ccc2c(NC(=O)C3CC3)noc2c1`, the inhibition in [1] was 1%; in assay [2], 5.3%; in [3], 8.7%; in [4] it was 2%; in assay [5], 1%; in [6], 1.7%. Besides, the inhibition in assay [7] was 0.7%; in [8] it was 0.3%; in assay [9] it was 1%; in assay [10], 1.7%; in [11], -1.3%; in assay [12] it was 24.3%. Also, the inhibition in assay [13] was 2.3%; in assay [14], 3%; in [15], -3.3%.

With `Cc1n[nH]c(C)c1-c1ccc2c(NC(=O)c3ccc(N4CCN(C)CC4)cc3)n[nH]c2c1`, the inhibition in assay [16] is -0.3%; in assay [17], -2%; in assay [18] it was 24.7%; in assay [19], 5.3%; in assay [20] it was -2%; in [21], 3%. Moreover, the inhibition in assay [22] is 9%; in [23] it was 0%; in assay [24], 0.7%; in assay [25] it was -3.3%.

As to `COC(=O)Nc1noc2cc(-c3c(-c4ccccn4)n[nH]c3C)ccc12`, the results for the inhibition in assay [26] and in assay [27] were 34% and 1.3%, respectively.
